According to patent EP1345943B1, “INHIBITORS OF PAPILLOMA VIRUS” (BOEHRINGER INGELHEIM (CANADA) LTD., priority 2000, dated 2002):
pIC50: −log10 of the molar value.

target: E1-E2-DNA complex (Human papillomavirus 11, UniProt P04015); assay: E2-dependent E1 DNA binding assay (E1-E2 DNA assay); conditions: E1-E2 DNA assay of Example 11, HPV-11
Procedure: This particular assay determines the ability of a test compound to inhibit the activity (IC50) of HPV-11 DNA replication. More specifically, in the assay described herein, the inhibitory activity of the test compound is evaluated based on its ability to interfere with the E1-E2-DNA origin of replication interaction, thereby inhibiting initiation of viral DNA replication.
This assay was modeled on a similar assay for SV40 T Antigen described by McKay (J. Mol. Biol., 1981,145:471). A 400bp radiolabeled DNA probe, containing the -HPV-11 origin of replication (Chiang et al.., 1992, Proc. Natl.-Acad. Sci. USA 89:5799) was produced by pcr, using plasmid pBluescript™ SK encoding the origin (nucleotides 7886-61 of the HPV-11 genome in unique BAMH1 site) as template and primers flanking the origin. Radiolabel was incorporated as [33p]dCTP. Binding assay buffer consisted of: 20 mM Tris pH 7.6, 100 mM NaCI, 1 mM DTT, 1 mM EDTA.
Other reagents used were protein A-SPA beads (type II, Amersham) and K72 rabbit polyclonal antiserum, raised against a peptide corresponding to the C-terminal 14 amino acids of HPV-11 E1. Following the protocol from Amersham, one bottle of beads was mixed with 25 mL of binding assay buffer. For the assay, a saturating amount of K72 antiserum was added to the beads and the mixture was incubated for 1 h, washed with one volume of binding assay buffer, and then resuspended in the same volume of fresh binding assay buffer. Binding reactions contained 8 ng of E2, approximately 100-200 ng of purified E1, and 0.4 ng of radiolabeled probe in a total of 80 µL of binding assay buffer. After 1 h at room temperature, 25 µL of K72 antibody-SPA bead suspension was added to with the binding reaction and mixed. After an additional hour of incubation at room temperature, the reactions were centrifuged briefly to pellet the beads and the extent of complex formation was determined by scintillation counting on a Packard TopCount™. Typically, the signal for reactions containing E1 and E2 was 20-30 fold higher than the background observed when either E1, E2, or both was omitted.

E1-E2-DNA complex, sequence (P04015 whole entry, one chain of several): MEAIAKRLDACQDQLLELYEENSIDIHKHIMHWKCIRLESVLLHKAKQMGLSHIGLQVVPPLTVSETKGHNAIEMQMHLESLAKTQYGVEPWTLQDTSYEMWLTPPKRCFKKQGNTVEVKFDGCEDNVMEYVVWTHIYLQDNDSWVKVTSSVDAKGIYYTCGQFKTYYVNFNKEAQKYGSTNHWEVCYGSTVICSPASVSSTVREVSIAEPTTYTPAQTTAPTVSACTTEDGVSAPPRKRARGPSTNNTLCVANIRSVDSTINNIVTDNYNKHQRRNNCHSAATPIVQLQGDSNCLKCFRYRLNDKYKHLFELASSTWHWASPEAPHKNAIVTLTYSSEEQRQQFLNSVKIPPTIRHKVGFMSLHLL

SMILES | pIC50
Cc1cc2c(cc1F)C(=O)C1(OC(c3ccc(Br)c(Br)c3)C(C(=O)Nc3ccc(N4CCOCC4)cc3)C1C(=O)O)C2=O (single isomer, unassigned) [Compound A1015] | > 6.30
Cc1cc2c(cc1F)C(=O)C1(OC(c3ccc(Br)c(Br)c3)C(C(=O)Nc3ccc(N4CCOCC4)cc3)C1C(=O)O)C2=O (single isomer, unassigned) [Compound A1016] | 5.30 to 6.30
Cc1ccc2c(c1)C(=O)C13OC(c4ccc(Br)c(Br)c4)C(C(=O)Nc4ccc(N5CCOCC5)cc4)C1C(=O)OC23O (single isomer, unassigned) [Compound B1002] | > 6.30
Cc1ccc2c(c1)C1(O)OC(=O)C3C(C(=O)Nc4ccc(N5CCOCC5)cc4)C(c4ccc(Br)c(Br)c4)OC31C2=O (single isomer, unassigned) [Compound B1003] | > 6.30
Cc1ccc2c(c1)C(=O)C13OC(c4ccc(Br)c(Br)c4)C(C(=O)NCCc4ccccc4Cl)C1C(=O)OC23O (single isomer, unassigned) [Compound B1004] | 4.30 to 5.30
Cc1ccc2c(c1)C1(O)OC(=O)C3C(C(=O)NCCc4ccccc4Cl)C(c4ccc(Br)c(Br)c4)OC31C2=O (single isomer, unassigned) [Compound B1005] | 4.30 to 5.30
Cc1ccc2c(c1)C(=O)C13OC(c4ccc(Br)c(Br)c4)C(C(=O)NCCc4ccccc4Cl)C1C(=O)OC23O (single isomer, unassigned) [Compound B1006] | 5.30 to 6.30
Cc1ccc2c(c1)C1(O)OC(=O)C3C(C(=O)NCCc4ccccc4Cl)C(c4ccc(Br)c(Br)c4)OC31C2=O (single isomer, unassigned) [Compound B1007] | > 6.30
Cc1cc2c(cc1F)C(=O)C13OC(c4ccc(Br)c(Br)c4)C(C(=O)Nc4ccc(N5CCOCC5)cc4)C1C(=O)OC23O (single isomer, unassigned) [Compound B1008] | > 6.30
CC(=O)c1ccc(NC(=O)C2C(c3ccc(Cl)c(Cl)c3)OC34C(=O)c5cc(C)sc5C3(O)OC(=O)C24)cc1 (single isomer, unassigned) [Compound D1001] | > 6.30
Cc1cc2c(s1)C1(O)OC(=O)C3C(C(=O)Nc4ccc(N5CCOCC5)cc4)C(c4ccc(Br)c(Br)c4)OC31C2=O (single isomer, unassigned) [Compound D1002] | > 6.30
Cc1cc2c(s1)C1(O)OC(=O)C3C(C(=O)Nc4ccc(CNC(=O)OC(C)(C)C)cc4)C(c4ccc(Br)c(Br)c4)OC31C2=O (single isomer, unassigned) [Compound D1003] | > 6.30
CC(=O)NCc1ccc(NC(=O)C2C(c3ccc(Br)c(Br)c3)OC34C(=O)c5cc(C)sc5C3(O)OC(=O)C24)cc1 (single isomer, unassigned) [Compound D1004] | > 6.30
O=C(Nc1ccc(N2CCOCC2)cc1)C1C(c2ccc(Br)c(Br)c2)OC2(C(=O)c3ccccc3C2=O)C1C(=O)O (centres unmarked) [10,001] | 5.30 to 6.30
O=C(Nc1ccc2c(c1)OCO2)C1C(c2ccc(Cl)cc2)OC2(C(=O)c3ccccc3C2=O)C1C(=O)O (centres unmarked) [Compound 1001] | 4.30 to 5.30
O=C(Nc1ccc2c(c1)OCO2)C1C(c2ccc(Cl)c(Cl)c2)OC2(C(=O)c3ccccc3C2=O)C1C(=O)O (centres unmarked) [Compound 1002] | > 6.30
O=C(Nc1ccc(F)cc1)C1C(c2ccc(Cl)cc2)OC2(C(=O)c3ccccc3C2=O)C1C(=O)O (centres unmarked) [Compound 1003] | 4.30 to 5.30
COc1ccc(NC(=O)C2C(c3ccc(Cl)cc3)OC3(C(=O)c4ccccc4C3=O)C2C(=O)O)cc1OC (centres unmarked) [Compound 1004] | 4.30 to 5.30
CC(=O)c1ccc(NC(=O)C2C(c3ccc(Cl)cc3)OC3(C(=O)c4ccccc4C3=O)C2C(=O)O)cc1 (centres unmarked) [Compound 1005] | 4.30 to 5.30
O=C(Nc1cccc(Cl)c1)C1C(c2ccc(Cl)cc2)OC2(C(=O)c3ccccc3C2=O)C1C(=O)O (centres unmarked) [Compound 1006] | 4.30 to 5.30
Cc1ccc(NC(=O)C2C(c3ccc(Cl)cc3)OC3(C(=O)c4ccccc4C3=O)C2C(=O)O)cc1 (centres unmarked) [Compound 1007] | 4.30 to 5.30
CC(C)c1ccc(C2OC3(C(=O)c4ccccc4C3=O)C(C(=O)O)C2C(=O)Nc2ccc3c(c2)OCO3)cc1 (centres unmarked) [Compound 1008] | 4.30 to 5.30
O=C(Nc1ccc(F)cc1F)C1C(c2ccc(Cl)cc2)OC2(C(=O)c3ccccc3C2=O)C1C(=O)O (centres unmarked) [Compound 1009] | 4.30 to 5.30
O=C(Nc1ccc(Cl)cc1)C1C(c2ccc(Cl)cc2)OC2(C(=O)c3ccccc3C2=O)C1C(=O)O (centres unmarked) [Compound 1010] | 4.30 to 5.30
O=C(Nc1ccccc1)C1C(c2ccc(Cl)cc2)OC2(C(=O)c3ccccc3C2=O)C1C(=O)O (centres unmarked) [Compound 1011] | 4.30 to 5.30
Cc1cccc(NC(=O)C2C(c3ccc(Cl)cc3)OC3(C(=O)c4ccccc4C3=O)C2C(=O)O)c1 (centres unmarked) [Compound 1012] | 4.30 to 5.30
O=C(Nc1ccc2c(c1)CCC2)C1C(c2ccc(Cl)cc2)OC2(C(=O)c3ccccc3C2=O)C1C(=O)O (centres unmarked) [Compound 1013] | 4.30 to 5.30

SMILES | pIC50
O=C(Nc1ccc(C(F)(F)F)cc1)C1C(c2ccc(Cl)cc2)OC2(C(=O)c3ccccc3C2=O)C1C(=O)O (centres unmarked) [Compound 1014] | 4.30 to 5.30
O=C(Nc1ccc2c(c1)OCO2)C1C(c2cccc(Cl)c2)OC2(C(=O)c3ccccc3C2=O)C1C(=O)O (centres unmarked) [Compound 1015] | 5.30 to 6.30
O=C(Nc1ccc2c(c1)OCO2)C1C(c2ccc(C(F)(F)F)cc2)OC2(C(=O)c3ccccc3C2=O)C1C(=O)O (centres unmarked) [Compound 1016] | 4.30 to 5.30
COC(=O)C1C(C(=O)Nc2ccc3c(c2)OCO3)C(c2ccc(Cl)cc2)OC12C(=O)c1ccccc1C2=O (centres unmarked) [Compound 1017] | 4.30 to 5.30
Cc1cccc(C2OC3(C(=O)c4ccccc4C3=O)C(C(=O)O)C2C(=O)Nc2ccc3c(c2)OCO3)c1 (centres unmarked) [Compound 1018] | 4.30 to 5.30
O=C(Nc1ccc2c(c1)OCO2)C1C(c2ccc(Cl)cc2)OC2(C(=O)c3cccc(F)c3C2=O)C1C(=O)O (centres unmarked) [Compound 1019] | 4.30 to 5.30
O=C(Nc1ccc2c(c1)OCO2)C1C(c2cc(Cl)cc(Cl)c2)OC2(C(=O)c3ccccc3C2=O)C1C(=O)O (centres unmarked) [Compound 1020] | 4.30 to 5.30
CC(=O)c1ccc(NC(=O)C2C(c3ccc(Cl)c(Cl)c3)OC3(C(=O)c4ccccc4C3=O)C2C(=O)O)cc1 (centres unmarked) [Compound 1021] | > 6.30
Cc1ccc(C2OC3(C(=O)c4ccccc4C3=O)C(C(=O)O)C2C(=O)Nc2ccc3c(c2)OCO3)cc1C (centres unmarked) [Compound 1024] | 5.30 to 6.30
CC(C)(C)c1ccc(NC(=O)C2C(c3ccc(Cl)c(Cl)c3)OC3(C(=O)c4ccccc4C3=O)C2C(=O)O)cc1 (centres unmarked) [Compound 1025] | 5.30 to 6.30
Cc1ccc2nc(-c3ccc(NC(=O)C4C(c5ccc(Cl)c(Cl)c5)OC5(C(=O)c6ccccc6C5=O)C4C(=O)O)cc3)sc2c1 (centres unmarked) [Compound 1028] | > 6.30
O=C(Nc1ccc2c(c1)OCO2)C1C(c2ccc(Cl)c(F)c2)OC2(C(=O)c3ccccc3C2=O)C1C(=O)O (centres unmarked) [Compound 1029] | 5.30 to 6.30
O=C(Nc1ccc2c(c1)OCO2)C1C(c2ccc(F)c(Cl)c2)OC2(C(=O)c3ccccc3C2=O)C1C(=O)O (centres unmarked) [Compound 1030] | 5.30 to 6.30
O=C(Nc1ccc2c(c1)OCO2)C1C(c2cccc(C(F)(F)F)c2)OC2(C(=O)c3ccccc3C2=O)C1C(=O)O (centres unmarked) [Compound 1031] | 5.30 to 6.30
CC(=O)c1ccc(NC(=O)C2C(c3cccc(Cl)c3)OC3(C(=O)c4ccccc4C3=O)C2C(=O)O)cc1 (centres unmarked) [Compound 1032] | 5.30 to 6.30
CSc1ccc(NC(=O)C2C(c3ccc(Cl)c(Cl)c3)OC3(C(=O)c4ccccc4C3=O)C2C(=O)O)cc1 (centres unmarked) [Compound 1033] | 5.30 to 6.30
O=C(Nc1ccc(N2CCOCC2)cc1)C1C(c2ccc(Cl)c(Cl)c2)OC2(C(=O)c3ccccc3C2=O)C1C(=O)O (centres unmarked) [Compound 1034] | > 6.30
CC(=O)Nc1ccc(NC(=O)C2C(c3ccc(Cl)c(Cl)c3)OC3(C(=O)c4ccccc4C3=O)C2C(=O)O)cc1 (centres unmarked) [Compound 1035] | > 6.30
CC(C)NC(=O)C1C(c2ccc(Cl)c(Cl)c2)OC2(C(=O)c3ccccc3C2=O)C1C(=O)O (centres unmarked) [Compound 1036] | 5.30 to 6.30
Cc1ccc2c(c1)C(=O)C1(OC(c3ccc(Cl)c(Cl)c3)C(C(=O)Nc3ccc4c(c3)OCO4)C1C(=O)O)C2=O (centres unmarked) [Compound 1037] | 5.30 to 6.30
O=C(Nc1ccc2c(c1)OCO2)C1C(c2ccc(I)cc2)OC2(C(=O)c3ccccc3C2=O)C1C(=O)O (centres unmarked) [Compound 1039] | 5.30 to 6.30
O=C(Nc1cc2ccccc2cn1)C1C(c2ccc(Cl)c(Cl)c2)OC2(C(=O)c3ccccc3C2=O)C1C(=O)O (centres unmarked) [Compound 1040] | 5.30 to 6.30
Cc1cccc2c1C(=O)C1(OC(c3ccc(Cl)c(Cl)c3)C(C(=O)Nc3ccc4c(c3)OCO4)C1C(=O)O)C2=O (centres unmarked) [Compound 1041] | 5.30 to 6.30
Cc1cccc2c1C(=O)C1(OC(c3ccc(Cl)c(Cl)c3)C(C(=O)Nc3ccc4c(c3)OCO4)C1C(=O)O)C2=O (centres unmarked) [Compound 1042] | 5.30 to 6.30
O=C(NN1CCOCC1)C1C(c2ccc(Cl)c(Cl)c2)OC2(C(=O)c3ccccc3C2=O)C1C(=O)O (centres unmarked) [Compound 1043] | 5.30 to 6.30
CC(=O)c1ccc(NC(=O)C2C(c3cccc(Cl)c3)OC3(C(=O)c4ccccc4C3=O)C2C(=O)O)cc1 (centres unmarked) [Compound 1044] | 4.30 to 5.30
